Biological target: T1, GABA A receptor α5β3γ2 (Homo sapiens, UniProt P18507+P31644)
T1 construct: expressed in transfected cells; host or cells: HEK293 cells, transiently transfected; membranes prepared
Test: [3H]flumazenil competition binding, human GABA A α5β3γ2
Details: competition for [3H]flumazenil (0.5 nM) binding, HEK293 cells expressing human (transiently transfected) α5β3γ2; means of two determinations; read-out: Ki[nM] hα5
How it was run: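 HEK293 membranes expressing GABA-A receptors (human transiently, rat stably transfected) were used for [3H]flumazenil competition in Krebs-tris buffer, pH 7.5. Incubation ran 1 h at 4 °C to equilibrium, followed by filtration and scintillation counting. Ki values are means of two determinations.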

Structure (SMILES)	Ki [nM]
Cc1onc(-c2ccccc2)c1-c1nnc(-c2ccc(N)cc2)o1 [Example 35, 4-[5-(5-Methyl-3-phenyl-isoxazol-4-yl)-[1,3,4]oxadiazol-2-yl]-phenylamine]	31.2
Cc1onc(-c2ccccc2)c1-c1nnc(-c2ccc(N3C[C@@H](C)O[C@@H](C)C3)cc2)o1 [Example 41, rac-(2S,6R)-2,6-Dimethyl-4-{4-[5-(5-methyl-3-phenyl-isoxazol-4-yl)-[1,3,4]oxadiazol-2-yl]-phenyl}-morpholine]	32.5
COc1cc(N)ccc1-c1nnc(-c2c(-c3ccccc3)noc2C)o1 [Example 13, 3-Methoxy-4-[5-(5-methyl-3-phenyl-isoxazol-4-yl)-[1,3,4]oxadiazol-2-yl]-phenylamine]	7.5
COc1cc(N(C)C(=O)C2CC2)ccc1-c1nnc(-c2c(-c3ccccc3)noc2C)o1 [Example 17, Cyclopropanecarboxylic acid {3-methoxy-4-[5-(5-methyl-3-phenyl-isoxazol-4-yl)-[1,3,4]oxadiazol-2-yl]-phenyl}-methyl-amide]	48.8
Cc1onc(-c2ccccc2)c1-c1nnc(-c2ccc3[nH]cnc3c2)o1 [Example 27, 5-[5-(5-Methyl-3-phenyl-isoxazol-4-yl)-[1,3,4]oxadiazol-2-yl]-1H-benzoimidazole]	22.1
Cc1onc(-c2ccccc2)c1-c1nnc(-c2ccc(N)nc2)o1 [Example 48, 5-[5-(5-Methyl-3-phenyl-isoxazol-4-yl)-[1,3,4]oxadiazol-2-yl]-pyridin-2-ylamine]	38.9
Cc1onc(-c2ccccc2)c1-c1nnc(-c2ccc3c(c2)n(C)c(=O)n3C)o1 [Example 51, 1,3-Dimethyl-5-[5-(5-methyl-3-phenyl-isoxazol-4-yl)-[1,3,4]oxadiazol-2-yl]-1,3-dihydro-benzoimidazol-2-one]	128
Cc1onc(-c2ccccc2)c1-c1nnc(-c2ccc(C(F)(F)F)cc2)o1 [Example 50, 2-(5-Methyl-3-phenyl-isoxazol-4-yl)-5-(4-trifluoromethyl-phenyl)-[1,3,4]oxadiazole]	250
Cc1onc(-c2ccccc2)c1-c1nnc(-c2ccnc(N3CCOCC3)c2)o1 [Example 55, 4-{4-[5-(5-Methyl-3-phenyl-isoxazol-4-yl)-[1,3,4]oxadiazol-2-yl]-pyridin-2-yl}-morpholine]	324
Cc1onc(-c2ccccc2)c1-c1nnc(-c2ccccc2OC(F)(F)F)o1 [Example 43, 2-(5-Methyl-3-phenyl-isoxazol-4-yl)-5-(2-trifluoromethoxy-phenyl)-[1,3,4]oxadiazole]	131
COc1cc(F)ccc1-c1nnc(-c2c(-c3ccccc3)noc2C(C)C)o1 [Example 61, 2-(4-Fluoro-2-methoxy-phenyl)-5-(5-isopropyl-3-phenyl-isoxazol-4-yl)-[1,3,4]oxadiazole]	17.7
CC(C)c1onc(-c2ccccc2)c1-c1nnc(-c2ccc3c(c2)n(C)c(=O)n3C)o1 [Example 53, 5-[5-(5-Isopropyl-3-phenyl-isoxazol-4-yl)-[1,3,4]oxadiazol-2-yl]-1,3-dimethyl-1,3-dihydro-benzoimidazol-2-one]	2.3
Cc1ccccc1-c1nnc(-c2c(-c3ccccc3)noc2C)o1 [Example 2, 2-(5-Methyl-3-phenyl-isoxazol-4-yl)-5-o-tolyl-[1,3,4]oxadiazole]	234
Cc1onc(-c2ccccc2)c1-c1nnc(-c2ccc3[nH]ccc3c2)o1 [Example 74, 5-[5-(5-Methyl-3-phenyl-isoxazol-4-yl)-[1,3,4]oxadiazol-2-yl]-1H-indole]	134
COC(=O)c1ccc(-c2nnc(-c3c(-c4ccccc4)noc3C)o2)cc1 [Example 71, 4-[5-(5-Methyl-3-phenyl-isoxazol-4-yl)-[1,3,4]oxadiazol-2-yl]-benzoic acid methyl ester]	289

Other lines, results leading:

Ki [nM]	Structure (SMILES)
3.7	COc1cc(NC2CCOCC2)ccc1-c1nnc(-c2c(-c3ccccc3)noc2C2CC2)o1 [Example 82, {4-[5-(5-Cyclopropyl-3-phenyl-isoxazol-4-yl)-[1,3,4]oxadiazol-2-yl]-3-methoxy-phenyl}-(tetrahydro-pyran-4-yl)-amine]
31	Cc1onc(-c2ccccc2)c1-c1nnc(-c2ccc(N3CCSCC3)nc2)o1 [Example 138, 4-{5-[5-(5-Methyl-3-phenyl-isoxazol-4-yl)-[1,3,4]oxadiazol-2-yl]-pyridin-2-yl}-thiomorpholine]
339	CNCc1onc(-c2ccccc2)c1-c1nnc(-c2ccc(F)cc2OC)o1 [Example 88, {4-[5-(4-Fluoro-2-methoxy-phenyl)-[1,3,4]oxadiazol-2-yl]-3-phenyl-isoxazol-5-ylmethyl}-methyl-amine]
12.1	COc1cc(N2CCOCC2)ccc1-c1nnc(-c2c(-c3ccc(C)cc3)noc2C)o1 [Example 104, 4-(3-Methoxy-4-{5-[5-methyl-3-(4-methyl-phenyl)-isoxazol-4-yl]-[1,3,4]oxadiazol-2-yl}-phenyl)-morpholine]
189	Cc1onc(-c2ccccc2)c1-c1nnc(-c2ccc(F)cc2F)o1 [Example 76, 2-(2,4-Difluoro-phenyl)-5-(5-methyl-3-phenyl-isoxazol-4-yl)-[1,3,4]oxadiazole]
225	Cc1onc(-c2ccccc2)c1-c1nnc(-c2cccc(F)c2F)o1 [Example 84, 2-(2,3-Difluoro-phenyl)-5-(5-methyl-3-phenyl-isoxazol-4-yl)-[1,3,4]oxadiazole]
42.1	Cc1onc(-c2ccccc2)c1-c1nnc(-c2ccc(C(=O)NC3CC3)cc2)o1 [Example 78, N-Cyclopropyl-4-[5-(5-methyl-3-phenyl-isoxazol-4-yl)-[1,3,4]oxadiazol-2-yl]-benzamide]
163	Cc1onc(-c2ccccc2)c1-c1nnc(-c2cc(F)ccc2F)o1 [Example 83, 2-(2,5-Difluoro-phenyl)-5-(5-methyl-3-phenyl-isoxazol-4-yl)-[1,3,4]oxadiazole]
86	Cc1onc(-c2ccccc2)c1-c1nnc(-c2ccc(C(=O)NC3CCOCC3)cc2)o1 [Example 81, 4-[5-(5-Methyl-3-phenyl-isoxazol-4-yl)-[1,3,4]oxadiazol-2-yl]-N-(tetrahydro-pyran-4-yl)-benzamide]
17.7	Cc1onc(-c2ccccc2)c1-c1nnc(-c2ccc(N3CCS(=O)(=O)CC3)nc2)o1 [Example 141, 4-{5-[5-(5-Methyl-3-phenyl-isoxazol-4-yl)-[1,3,4]oxadiazol-2-yl]-pyridin-2-yl}-thiomorpholine 1,1-dioxide]
129	Cc1onc(-c2ccccc2)c1-c1nnc(-c2ccc3c(ccn3C)c2)o1 [Example 75, 1-Methyl-5-[5-(5-methyl-3-phenyl-isoxazol-4-yl)-[1,3,4]oxadiazol-2-yl]-1H-indole]
44.5	COc1cc(N2CCOCC2)ccc1-c1nnc(-c2conc2-c2ccccc2)o1 [Example 95, 4-{3-Methoxy-4-[5-(3-phenyl-isoxazol-4-yl)-[1,3,4]oxadiazol-2-yl]-phenyl}-morpholine]
7.4	COc1cc(N2CCOCC2)ccc1-c1nnc(-c2c(-c3ccccc3)noc2-n2cccn2)o1 [Example 113, 4-{3-Methoxy-4-[5-(3-phenyl-5-pyrazol-1-yl-isoxazol-4-yl)-[1,3,4]oxadiazol-2-yl]-phenyl}-morpholine]
8.2	COCCNc1ccc(-c2nnc(-c3c(-c4ccccc4)noc3C)o2)c(OC)c1 [Example 124, (2-Methoxy-ethyl)-{3-methoxy-4-[5-(5-methyl-3-phenyl-isoxazol-4-yl)-[1,3,4]oxadiazol-2-yl]-phenyl}-amine]
5.8	COc1cc(NC=O)ccc1-c1nnc(-c2c(-c3ccccc3)noc2C)o1 [Example 134, N-{3-Methoxy-4-[5-(5-methyl-3-phenyl-isoxazol-4-yl)-[1,3,4]oxadiazol-2-yl]-phenyl}-formamide]
10.5	COc1cc(NCC2CCCO2)c(F)cc1-c1nnc(-c2c(-c3ccccc3)noc2C)o1 (racemic) [Example 130, rac-{2-Fluoro-5-methoxy-4-[5-(5-methyl-3-phenyl-isoxazol-4-yl)-[1,3,4]oxadiazol-2-yl]-phenyl}-(tetrahydro-furan-2-ylmethyl)-amine]
9.4	COc1cc(NCCN(C)C)c(F)cc1-c1nnc(-c2c(-c3ccccc3)noc2C)o1 [Example 135, N′-{2-Fluoro-5-methoxy-4-[5-(5-methyl-3-phenyl-isoxazol-4-yl)-[1,3,4]oxadiazol-2-yl]-phenyl}-N,N-dimethyl-ethane-1,2-diamine]
24.5	Cc1onc(-c2ccccc2)c1-c1nnc(-c2ccc(NCCO)nc2)o1 [Example 137, 2-{5-[5-(5-Methyl-3-phenyl-isoxazol-4-yl)-[1,3,4]oxadiazol-2-yl]-pyridin-2-ylamino}-ethanol]
20.6	COc1cc(-n2nccn2)ccc1-c1nnc(-c2c(-c3ccccc3)noc2C)o1 [Example 85, 2-(2-Methoxy-4-[1,2,3]triazol-2-yl-phenyl)-5-(5-methyl-3-phenyl-isoxazol-4-yl)-[1,3,4]oxadiazole]
112	COCc1onc(-c2ccccc2)c1-c1nnc(-c2ccc(F)cc2OC)o1 [Example 91, 2-(4-Fluoro-2-methoxy-phenyl)-5-(5-methoxymethyl-3-phenyl-isoxazol-4-yl)-[1,3,4]oxadiazole]
